Measured values published in US20050239806A1, “Pyrrolopyrimidine derivatives and analogs and their use in the treatment and prevention of diseases” (Ambit Biosciences Corporation, priority 2004, published 2005).

Legend:
[1] = biological target: T1, EGFR (tyrosine 1173 phosphorylation) in A431 cells (Homo sapiens, UniProt P00533); assay: EGFR Autophosphorylation Inhibition Assay in Epidermoid Carcinoma Cell Line A431; type: cell-based; conditions: EGF-induced phosphorylation of tyrosine 1173
T1 construct: endogenous in cells; host or cells: A431
T1 sequence (P00533 25-1210): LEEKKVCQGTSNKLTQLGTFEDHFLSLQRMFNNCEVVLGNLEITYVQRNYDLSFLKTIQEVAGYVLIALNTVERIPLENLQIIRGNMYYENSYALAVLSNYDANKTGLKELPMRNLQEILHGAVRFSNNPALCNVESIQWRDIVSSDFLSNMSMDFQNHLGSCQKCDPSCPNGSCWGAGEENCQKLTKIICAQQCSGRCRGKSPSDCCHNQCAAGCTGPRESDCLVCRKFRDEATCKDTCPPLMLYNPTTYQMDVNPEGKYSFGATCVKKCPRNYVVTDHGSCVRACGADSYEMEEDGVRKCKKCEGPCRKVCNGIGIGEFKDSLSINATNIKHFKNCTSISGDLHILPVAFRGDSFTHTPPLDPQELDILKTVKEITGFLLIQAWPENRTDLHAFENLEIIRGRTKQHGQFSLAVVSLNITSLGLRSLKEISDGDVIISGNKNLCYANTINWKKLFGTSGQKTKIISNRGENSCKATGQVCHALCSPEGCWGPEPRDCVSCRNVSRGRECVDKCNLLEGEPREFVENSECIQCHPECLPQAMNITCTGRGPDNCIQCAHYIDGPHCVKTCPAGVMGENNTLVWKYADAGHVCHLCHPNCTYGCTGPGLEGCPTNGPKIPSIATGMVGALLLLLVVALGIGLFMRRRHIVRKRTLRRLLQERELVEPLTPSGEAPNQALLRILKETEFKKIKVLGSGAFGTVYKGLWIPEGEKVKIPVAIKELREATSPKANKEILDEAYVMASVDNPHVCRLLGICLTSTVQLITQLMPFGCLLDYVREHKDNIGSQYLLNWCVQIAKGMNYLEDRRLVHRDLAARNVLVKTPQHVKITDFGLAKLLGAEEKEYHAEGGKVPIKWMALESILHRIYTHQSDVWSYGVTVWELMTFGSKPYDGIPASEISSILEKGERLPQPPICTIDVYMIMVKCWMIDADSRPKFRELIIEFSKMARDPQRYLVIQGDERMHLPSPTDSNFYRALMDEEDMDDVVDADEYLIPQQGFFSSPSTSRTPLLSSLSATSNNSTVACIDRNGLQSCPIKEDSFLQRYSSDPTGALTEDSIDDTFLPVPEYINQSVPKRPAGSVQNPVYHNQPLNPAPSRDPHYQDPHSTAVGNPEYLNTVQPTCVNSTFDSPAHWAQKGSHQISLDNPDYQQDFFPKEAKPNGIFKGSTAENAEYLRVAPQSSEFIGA
Protocol: (§1) Tyrosine 1173 is a major autophosphorylation site resulting from activation of EGFR by epidermal growth factor (EGF). To determine the capacity of a compound to inhibit this phosphorylation activity of EGFR upon itself, the following methodology was used: 4×10^4 A431 cells/well in a 96-well culture plate or 3.6×10^5 A549 cells/well in a 24-well culture plate were cultured overnight at 37° C. in 5% CO2 in low serum culture medium (DMEM supplemented with 0.5% fetal calf serum, 4.500 mg/L glucose and 100 units/ml penicillin-streptomycin). After 16 hours, the cells were pre-incubated in eight serial 3-fold dilutions of test compound (3.3 μM-0.0017 μM) in addition to vehicle control (final concentration on DMSO vehicle was 1%) for two hours. Cells were stimulated by the addition of 5 ng/ml of EGF for five minutes. Cells were then washed with cold phosphate buffered saline (PBS), and incubated for 30 minutes at 4° C. in lysis buffer. Subsequently, the samples were centrifuged at 6000× RCF for 15 minutes, and the level of phosphorylation of EGFR tyrosine 1173 was measured using a sandwich enzyme-linked immunosorbent assay following the manufacturer's recommended protocols (Biosource, Camarillo, Calif.). Total EGFR levels were also measured in the same manner to control for protein level differences. The reported values are those concentrations of compound required to inhibit EGF-induced phosphorylation of tyrosine 1173 by 50%.

[2] = biological target: T2, EGFR (tyrosine 1173 phosphorylation) in Lung Cancer Cell Line A459 (Homo sapiens, UniProt P00533); assay: EGFR Autophosphorylation Inhibition Assay in Lung Cancer Cell Line A459; type: cell-based; conditions: EGF-induced phosphorylation of tyrosine 1173
T2 construct: endogenous in cells
T2 sequence (P00533 25-1210): as above
Protocol: as §1

[3] = biological target: T3, human EGFR (wildtype), EGFR(DKIN) (Homo sapiens, UniProt P00533); assay: Binding of wildtype-EGFR (T7 phage-displayed kinase competition binding)
T3 construct: Kd for EGFR(DKIN); made in house
T3 sequence (P00533 712-979 limits assumed): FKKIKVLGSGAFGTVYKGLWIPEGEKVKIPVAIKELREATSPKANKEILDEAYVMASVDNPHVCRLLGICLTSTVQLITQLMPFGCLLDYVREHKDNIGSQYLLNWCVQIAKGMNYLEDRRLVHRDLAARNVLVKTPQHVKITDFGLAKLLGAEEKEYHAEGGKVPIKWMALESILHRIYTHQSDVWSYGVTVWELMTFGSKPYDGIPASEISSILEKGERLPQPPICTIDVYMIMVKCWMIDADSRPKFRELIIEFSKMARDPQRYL
Source text: Methods for measuring binding affinities for interactions between small molecules and kinases including FLT3, c-KIT, ABL([…]) [a.k.a. ABL([…])], VEGFR-2 (a.k.a. KDR), and EGFR are described in detail in U.S. application Ser. No. 10/873,835, which is incorporated by reference herein in its entirety. The components of the assays include human kinases expressed as fusions to T7 bacteriophage particles and immobilized ligands that bind to the ATP site of the kinases. […] If the test compound binds the kinase it competes with the immobilized ligand and prevents binding to the solid support. […] The results are read out by quantitating the amount of fusion protein bound to the solid support, which is accomplished by either traditional phage plaque assays or by quantitative PCR (qPCR) using the phage genome as a template. […] The concentration of test molecule that reduces the number of phage bound to the solid support by 50% is equal to the Kd for the interaction between the kinase and the test molecule. Typically, data are collected for twelve concentrations of test compound and, the resultant binding curve is fit to a non-cooperative binding isotherm to calculate Kd. Described in the exemplary assays below is data from binding with varying kinases. […] The term “ND” represents non-determined values. […] The Kd for the interaction between the soluble compound (competitor) molecule and EGFR is equal to the concentration of soluble competitor molecule that causes a 50% reduction in the number of phage recovered in the eluate compared to a control sample lacking soluble competitor.

Row | SMILES | IC50 [1] | IC50 [2] | Kd [3]
1 | Oc1ccc(-c2cc3c(Sc4ccc(F)cc4)ncnc3[nH]2)cc1 [Compound L8] | < 0.1 µM | 1 to 10 µM | < 0.1 µM
2 | COc1cccc(-c2cc3c(Sc4cccc(Br)c4)ncnc3[nH]2)c1 [Compound J23] | 0.1 to 1 µM | 0.1 to 1 µM | < 0.1 µM
3 | COc1ccc(-c2cc3c(Sc4ccc(F)c(Cl)c4)ncnc3[nH]2)cc1 [Compound J37] | 0.1 to 1 µM |  | < 0.1 µM
4 | COc1ccc(-c2cc3c(Oc4cccc(Br)c4)ncnc3[nH]2)cc1 [Compound D3] |  |  | 0.1 to 1 µM
5 | COc1ccc(-c2cc3c(Oc4cccc(Cl)c4)ncnc3[nH]2)cc1 [Compound D5] | 0.1 to 1 µM |  | < 0.1 µM
6 | c1ccc(Sc2ncnc3c2[nH]c2ccccc23)cc1 [Compound K17] |  |  | < 0.1 µM
7 | COc1cccc(-c2cc3c(Oc4cc(C)cc(C)c4)ncnc3[nH]2)c1 [Compound D18] |  |  | 0.1 to 1 µM
8 | Cc1cccc(Sc2ncnc3c2[nH]c2ccccc23)c1 [Compound K12] |  |  | 0.1 to 1 µM
9 | COc1ccc(-c2cc3c(Sc4ccc(Cl)c(Cl)c4)ncnc3[nH]2)cc1 [Compound J3] |  |  | 0.1 to 1 µM
10 | Cc1ccc(-c2cc3c(Sc4cccc(F)c4)ncnc3[nH]2)cc1 [Compound J17] |  |  | 0.1 to 1 µM
11 | COc1ccc(-c2cc3c(Sc4ccc(F)cc4)ncnc3[nH]2)cc1 [Compound J13] | 1 to 10 µM |  | < 0.1 µM
12 | Cc1cc(C)cc(Oc2ncnc3[nH]c(-c4ccc(O)cc4)cc23)c1 [Compound E2] |  |  | < 0.1 µM
13 | COc1cccc(-c2cc3c(Sc4cc(C)cc(C)c4)ncnc3[nH]2)c1 [Compound J22] |  |  | 0.1 to 1 µM
14 | COc1ccc(Sc2ncnc3[nH]c(-c4ccc(O)cc4)cc23)cc1 [Compound L11] |  |  | 0.1 to 1 µM
15 | COc1cccc(Sc2ncnc3[nH]c(-c4cccc(OC)c4)cc23)c1 [Compound J26] |  |  | 0.1 to 1 µM
16 | COc1cccc(-c2cc3c(Oc4cccc(F)c4)ncnc3[nH]2)c1 [Compound D20] |  |  | 0.1 to 1 µM
17 | COc1cccc(-c2cc3c(Oc4cccc(Br)c4)ncnc3[nH]2)c1 [Compound D19] | 0.1 to 1 µM | 1 to 10 µM | < 0.1 µM
18 | Oc1ccc(-c2cc3c(Oc4cc(Cl)cc(Cl)c4)ncnc3[nH]2)cc1 [Compound E1, 4-[4-(3,5-Dichloro-phenoxy)-7H-pyrrolo[2,3-d]pyrimidin-6-yl]-phenol] | 0.1 to 1 µM |  | 0.1 to 1 µM
19 | Cc1cccc(Sc2ncnc3[nH]c(-c4ccc(O)cc4)cc23)c1 [Compound L5] | < 0.1 µM | 1 to 10 µM | < 0.1 µM

Row | SMILES | IC50 [1] | IC50 [2] | Kd [3]
20 | COc1ccc(-c2cc3c(Sc4cccc(F)c4)ncnc3[nH]2)cc1 [Compound J8] | 1 to 10 µM | 1 to 10 µM | < 0.1 µM
21 | Cc1ccc(Sc2ncnc3[nH]c(-c4ccc(O)cc4)cc23)cc1 [Compound L9] | 0.1 to 1 µM | 1 to 10 µM | < 0.1 µM
22 | COc1cccc(-c2cc3c(Sc4ccc(F)cc4)ncnc3[nH]2)c1 [Compound J30] | 1 to 10 µM | 1 to 10 µM | < 0.1 µM
23 | Clc1cccc(Sc2ncnc3c2[nH]c2ccccc23)c1 [Compound K10] | 0.1 to 1 µM | 0.1 to 1 µM | < 0.1 µM
24 | COc1cccc(Sc2ncnc3oc(-c4ccccc4)c(-c4ccccc4)c23)c1 [Compound N12] |  |  | 0.1 to 1 µM
25 | COc1ccc(-c2cc3c(Sc4ccccc4)ncnc3[nH]2)cc1 [Compound J16] |  |  | 0.1 to 1 µM
26 | COc1cccc(-c2cc3c(Sc4ccc(C)cc4)ncnc3[nH]2)c1 [Compound J31] | 1 to 10 µM | > 10 µM | < 0.1 µM
27 | Clc1ccc(Sc2ncnc3[nH]ccc23)cc1Cl [Compound F3] |  |  | 0.1 to 1 µM
28 | COc1cccc(-c2cc3c(Sc4ccc(C(C)(C)C)cc4)ncnc3[nH]2)c1 [Compound J32] |  |  | 1 to 10 µM
29 | COc1cccc(-c2cc3c(Sc4ccccc4)ncnc3[nH]2)c1 [Compound J33] | 0.1 to 1 µM | 1 to 10 µM | < 0.1 µM
30 | COc1ccc(-c2cc3c(Sc4cccc(Cl)c4)ncnc3[nH]2)cc1 [Compound J7] | 1 to 10 µM | 1 to 10 µM | < 0.1 µM
31 | Oc1cccc(Sc2ncnc3oc(-c4ccccc4)c(-c4ccccc4)c23)c1 [Compound N4] |  |  | 0.1 to 1 µM
32 | Cc1ccc(Sc2ncnc3c2[nH]c2ccccc23)cc1 [Compound K15] | 0.1 to 1 µM |  | < 0.1 µM
33 | COc1ccc(-c2cc3c(OCc4cccc(C)c4)ncnc3[nH]2)cc1 [Compound C3] |  |  | > 10 µM
34 | COc1cccc(-c2cc3c(Sc4cccc(Cl)c4)ncnc3[nH]2)c1 [Compound J24] | 0.1 to 1 µM | 0.1 to 1 µM | < 0.1 µM
35 | COc1cccc(-c2cc3c(Sc4cccc(C)c4)ncnc3[nH]2)c1 [Compound J27] | 0.1 to 1 µM | 1 to 10 µM | 0.1 to 1 µM
36 | COc1cccc(-c2cc3c(Sc4cccc(F)c4)ncnc3[nH]2)c1 [Compound J25] | 0.1 to 1 µM | 1 to 10 µM | < 0.1 µM
37 | COc1ccc(-c2cc3c(Sc4ccc(C)cc4)ncnc3[nH]2)cc1 [Compound J14] | 1 to 10 µM | 1 to 10 µM | < 0.1 µM
38 | CCc1ccccc1Sc1ncnc2[nH]c(-c3cccc(OC)c3)cc12 [Compound J20] | 1 to 10 µM |  | < 0.1 µM

Row | SMILES | IC50 [1] | IC50 [2] | Kd [3]
39 | COc1ccc(-c2cc3c(Sc4cccc(OC)c4)ncnc3[nH]2)cc1 [Compound J9] |  |  | 0.1 to 1 µM
40 | COc1ccc(-c2cc3c(Sc4cccc(C(F)(F)F)c4)ncnc3[nH]2)cc1 [Compound J11] |  |  | 0.1 to 1 µM
41 | Cc1cc(C)cc(Sc2ncnc3[nH]c(-c4ccc(O)cc4)cc23)c1 [Compound J18] |  |  | 0.1 to 1 µM
42 | COc1cccc(-c2cc3c(Oc4cccc(C(F)(F)F)c4)ncnc3[nH]2)c1 [Compound D21] |  |  | 0.1 to 1 µM
43 | Brc1cccc(Sc2ncnc3c2[nH]c2ccccc23)c1 [Compound K8] | 0.1 to 1 µM |  | < 0.1 µM
44 | COc1cccc(-c2cc3c(Sc4ccccc4Cl)ncnc3[nH]2)c1 [Compound J19] | 1 to 10 µM | 1 to 10 µM | < 0.1 µM
45 | COc1ccc(-c2cc3c(OCc4ccccc4)ncnc3[nH]2)cc1 [Compound C4] |  |  | 0.1 to 1 µM
46 | COc1ccc(-c2cc3c(Oc4cccc(C)c4)ncnc3[nH]2)cc1 [Compound D8] |  |  | < 0.1 µM
47 | COc1ccc(-c2cc3c(Sc4cccc(C)c4)ncnc3[nH]2)cc1 [Compound J10] |  |  | 0.1 to 1 µM
48 | Oc1ccc(-c2cc3c(Sc4ccc(Cl)cc4)ncnc3[nH]2)cc1 [Compound L7] | 0.1 to 1 µM | 1 to 10 µM | < 0.1 µM
49 | COc1cccc(-c2cc3c(Sc4cccc(C(F)(F)F)c4)ncnc3[nH]2)c1 [Compound J28] | 1 to 10 µM |  | < 0.1 µM
50 | Clc1ccc(Sc2ncnc3c2[nH]c2ccccc23)cc1 [Compound K13] | 0.1 to 1 µM |  | < 0.1 µM
51 | Fc1ccc(Sc2ncnc3c2[nH]c2ccccc23)cc1 [Compound K14] | 0.1 to 1 µM | 0.1 to 1 µM | < 0.1 µM
52 | Oc1ccc(-c2cc3c(SCCc4ccccc4)ncnc3[nH]2)cc1 [Compound L1, 4-(4-Phenethylsulfanyl-7H-pyrrolo[2,3-d]pyrimidin-6-yl)-phenol] |  |  | 1 to 10 µM
53 | COc1cccc(-c2cc3c(Sc4cc(Cl)cc(Cl)c4)ncnc3[nH]2)c1 [Compound J21] |  |  | > 10 µM
54 | Oc1ccc(-c2cc3c(Sc4cccc(F)c4)ncnc3[nH]2)cc1 [Compound L3] | < 0.1 µM | 1 to 10 µM | < 0.1 µM
55 | COc1cccc(Sc2ncnc3[nH]c(-c4ccc(O)cc4)cc23)c1 [Compound L4] |  |  | 0.1 to 1 µM
56 | COc1cccc(Oc2ncnc3[nH]c(-c4ccc(O)cc4)cc23)c1 [Compound E4] |  |  | 0.1 to 1 µM
